Measured values reported in ChEMBL document CHEMBL5154709, “Tetrazole derivatives bearing benzodiazepine moiety-synthesis and action mode against virulence of Candida albicans” (Eur J Med Chem, 2022).
In brackets after ≈: the same amount, converted by molar mass. Activity calls are given as the source filed them. No cut-off for these calls is given here.

Tests used:
Candida albicans [1] = assay: Antifungal activity against Candida albicans SC5314 assessed as inhibition of fungal growth at 8 ug/ml incubated for 48 hrs by M27-A3 based microdilution method relative to control; type: functional
Candida albicans [2] = assay: Antifungal activity against Candida albicans SC5314 assessed as inhibition of fungal growth at 8 ug/ml incubated for 18 hrs by M27-A3 based microdilution method relative to control; type: functional
Candida albicans [3] = assay: Antifungal activity against Candida albicans SC5314 assessed as inhibition of fungal growth at 0.125 ug/ml incubated for 48 hrs by M27-A3 based microdilution method relative to control; type: functional
[4] = Toxicity in Galleria mellonella larvae assessed as change in morphology at 16 ug/ml measured after 5 days by Hematoxylin and eosin staining; conditions: 120 h, dose 16 µg/ml, time 5 day
Candida albicans [5] = assay: Antifungal activity against Candida albicans SC5314 assessed as inhibition of fungal growth at 1 ug/ml incubated for 48 hrs by M27-A3 based microdilution method relative to control; type: functional
Candida albicans [6] = assay: Antifungal activity against Candida albicans SC5314 assessed as inhibition of fungal growth at 0.125 ug/ml incubated for 18 hrs by M27-A3 based microdilution method relative to control; type: functional
Candida albicans [7] = assay: In vivo antifungal activity against Candida albicans SC5314 infected in Galleria mellonella larvae assessed as survival rate of larvae at 16 ug/ml administered 1 hr post infection measured within 5 days by Hematoxylin and eosin staining; type: functional; conditions: SC5314, 120 h, time 5 day
Candida albicans [8] = assay: Antifungal activity against Candida albicans SC5314 assessed as inhibition of fungal growth at 0.0625 ug/ml incubated for 48 hrs by M27-A3 based microdilution method relative to control; type: functional
[9] = Toxicity in Galleria mellonella larvae assessed as melanization of larvae at 16 ug/ml measured every 24 hrs for 4 to 5 days relative to control; conditions: at 16 µg/mL, time 4-5 day
Candida albicans [10] = assay: Induction of apoptosis in Candida albicans SC5314 non-protoplast cells assessed as necrotic cells at 16 ug/ml incubated for 18 hrs by PI/Annexin V staining based flow cytometry assay; type: functional; conditions: dose 16 µg/ml
Candida albicans [11] = assay: Induction of cell cycle arrest in Candida albicans SC5314 assessed as accumulation of cells in G0/G1 phase at 16 ug/ml incubated fro 18 hrs by PI staining based flow cytometry method; type: functional, organism-based; conditions: dose 16.0 µg/ml
Candida albicans [12] = assay: Induction of reactive oxygen species generation in Candida albicans SC5314 assessed as increase in ROS level at 16 ug/ml incubated for 18 hrs by DCFH-DA staining based flow cytometric analysis (reference value: 0.77+/- 0.4%); type: functional; conditions: dose 16 µg/ml
Candida albicans [13] = assay: Antifungal activity against Candida albicans SC5314 assessed as inhibition of fungal growth at 0.03125 ug/ml incubated for 18 hrs by M27-A3 based microdilution method relative to control; type: functional
Candida albicans [14] = assay: In vivo antifungal activity against Candida albicans SC5314 infected in Galleria mellonella larvae assessed as prevention of candidiasis at 16 ug/ml administered 1 hr prior to infection measured after 5 days by Hematoxylin and eosin staining; type: functional, organism-based; conditions: dose 16.0 µg/ml, time 5.0 day
Candida albicans [15] = assay: Induction of reactive oxygen species generation in Candida albicans cnb1delta/cnb1delta mutant assessed as increase in ROS level at 16 ug/ml incubated for 18 hrs by DCFH-DA staining based flow cytometric analysis (reference value: 4.7+/- 5.9%); type: functional; conditions: dose 16 µg/ml
Candida albicans [16] = assay: Antifungal activity against Candida albicans SC5314 assessed as inhibition of fungal growth at 16 ug/ml incubated for 18 hrs by M27-A3 based microdilution method relative to control; type: functional
Candida albicans [17] = assay: Antifungal activity against Candida albicans SC5314 assessed as inhibition of fungal growth at 0.5 ug/ml incubated for 18 hrs by M27-A3 based microdilution method relative to control; type: functional
Candida albicans [18] = assay: Antifungal activity against Candida albicans SC5314 assessed as inhibition of fungal growth at 1 ug/ml incubated for 18 hrs by M27-A3 based microdilution method relative to control; type: functional
Vero = assay: Cytotoxicity against African green monkey Vero cells at > 64 ug/ml measured after 24 hrs by XTT assay; type: toxicity, cell-based; conditions: chlorocebus sabaeus, dose > 64 µg/ml
[19] = Cytotoxicity against human TR146 cells at more than 64 ug/ml measured after 24 hrs by XTT assay; type: toxicity, cell-based; conditions: tr146, 24 h, dose 64 µg/ml
Candida albicans [20] = assay: Antifungal against Candida albicans SC5314 biofilm co-cultured with African green monkey Vero cells assessed as apoptotic-like chromatin aggregation of intact hyphae by measuring green fluorescence emission at 16 ug/ml incubated for 18 hrs by PI/acridine orange double staining based confocal laser scanning microscopic analysis; type: functional, organism-based; conditions: dose 16.0 µg/ml
Candida albicans [21] = assay: Induction of apoptosis in Candida albicans SC5314 protoplast cells assessed as necrotic cells at 16 ug/ml incubated for 18 hrs by PI/Annexin V staining based flow cytometry assay; type: functional; conditions: dose 16 µg/ml
Candida albicans [22] = assay: In vivo antifungal activity against Candida albicans SC5314 infected in Galleria mellonella larvae assessed as survival rate of larvae at 16 ug/ml administered 1 hr prior to infection measured within 5 days by Hematoxylin and eosin staining; type: functional; conditions: SC5314, 120 h, time 5 day
Candida albicans [23] = assay: Antifungal activity against Candida albicans SC5314 assessed as inhibition of fungal growth at 4 ug/ml incubated for 18 hrs by M27-A3 based microdilution method relative to control; type: functional
Candida albicans [24] = assay: Antifungal activity against Candida albicans SC5314 assessed as inhibition of fungal growth at 0.03125 ug/ml incubated for 48 hrs by M27-A3 based microdilution method relative to control; type: functional
Candida albicans [25] = assay: Antifungal activity against Candida albicans SC5314 assessed as inhibition of fungal growth at 4 ug/ml incubated for 48 hrs by M27-A3 based microdilution method relative to control; type: functional
Candida albicans [26] = assay: Antifungal against Candida albicans SC5314 biofilm assessed as amorphous layer of cell surface barrier at 16 ug/ml incubated for 18 hrs by Rho123 and Hoechst 33342 double staining based confocal laser scanning microscopic analysis; type: functional, organism-based; conditions: dose 16.0 µg/ml
Candida albicans [27] = assay: Induction of reactive oxygen species generation in Candida albicans BWP17 assessed as increase in ROS level at 16 ug/ml incubated for 18 hrs by DCFH-DA staining based flow cytometric analysis (reference value: 7.2+/- 0.2%); type: functional; conditions: dose 16 µg/ml
Candida albicans [28] = assay: Antifungal activity against Candida albicans SC5314 assessed as inhibition of fungal growth at 0.25 ug/ml incubated for 48 hrs by M27-A3 based microdilution method relative to control; type: functional
Candida albicans [29] = assay: Antifungal activity against Candida albicans SC5314 assessed as inhibition of fungal growth at 0.5 ug/ml incubated for 48 hrs by M27-A3 based microdilution method relative to control; type: functional
Candida albicans [30] = assay: Antifungal activity against Candida albicans SC5314 assessed as inhibition of fungal growth at 0.0625 ug/ml incubated for 18 hrs by M27-A3 based microdilution method relative to control; type: functional
Candida albicans [31] = assay: Antifungal activity against Candida albicans SC5314 assessed as inhibition of fungal growth at 2 ug/ml incubated for 48 hrs by M27-A3 based microdilution method relative to control; type: functional
Candida albicans [32] = assay: Induction of reactive oxygen species generation in Candida albicans CNB1/cnb1delta mutant assessed as increase in ROS level at 16 ug/ml incubated for 18 hrs by DCFH-DA staining based flow cytometric analysis (reference value: 3.8+/- 4.2%); type: functional; conditions: dose 16 µg/ml
Candida albicans [33] = assay: Fungicidal activity against Candida albicans SC5314 assessed as inhibition of fungal growth incubated for 48 hrs by M27-A3 based microdilution method; type: functional
Candida albicans [34] = assay: Antifungal activity against Candida albicans SC5314 assessed as inhibition of fungal growth at 0.25 ug/ml incubated for 18 hrs by M27-A3 based microdilution method relative to control; type: functional
Candida albicans [35] = assay: Antifungal activity against Candida albicans assessed as inhibition of fungal growth measured after 48 hrs by M27-A3 based broth microdilution; type: functional
Candida albicans [36] = assay: Antifungal activity against Candida albicans assessed as inhibition of fungal growth measured after 48 hrs in presence of exogenous ergosterol by M27-A3 based broth microdilution; type: functional
Candida albicans [37] = assay: Antifungal activity against Candida albicans SC5314 assessed as inhibition of fungal growth at 2 ug/ml incubated for 18 hrs by M27-A3 based microdilution method relative to control; type: functional
[38] = Toxicity in Galleria mellonella larvae assessed as melanization of larvae at 0.05 ug/ml measured every 24 hrs upto 5 days relative to control; conditions: 120 h, at 0.05 µg/mL, time < 5 day
Candida albicans [39] = assay: Antifungal activity against Candida albicans SC5314 assessed as inhibition of fungal growth at 16 ug/ml incubated for 48 hrs by M27-A3 based microdilution method relative to control; type: functional

Row | Structure (SMILES) | inhibition at 8 µg/mL (Candida albicans [1]) [%] | inhibition at 8 µg/mL (Candida albicans [2]) [%] | inhibition at 0.125 µg/mL (Candida albicans [3]) [%] | inhibition at 1 µg/mL (Candida albicans [5]) [%] | inhibition at 0.125 µg/mL (Candida albicans [6]) [%] | inhibition at 0.0625 µg/mL (Candida albicans [8]) [%] | inhibition at 0.03125 µg/mL (Candida albicans [13]) [%] | inhibition at 16 µg/mL (Candida albicans [16]) [%] | inhibition at 0.5 µg/mL (Candida albicans [17]) [%] | inhibition at 1 µg/mL (Candida albicans [18]) [%] | inhibition at 4 µg/mL (Candida albicans [23]) [%] | inhibition at 0.03125 µg/mL (Candida albicans [24]) [%] | inhibition at 4 µg/mL (Candida albicans [25]) [%] | inhibition at 0.25 µg/mL (Candida albicans [28]) [%] | inhibition at 0.5 µg/mL (Candida albicans [29]) [%] | inhibition at 0.0625 µg/mL (Candida albicans [30]) [%] | inhibition at 2 µg/mL (Candida albicans [31]) [%] | inhibition at 0.25 µg/mL (Candida albicans [34]) [%] | inhibition at 2 µg/mL (Candida albicans [37]) [%] | further results
1 | O=C1CN=C(c2ccccc2Br)c2cc(F)ccc2N1CCCn1nnc(-c2ccc(Cl)cc2)n1 | 99 | 99 | 98.9 | 99.1 | 98.9 | 99.3 | 100 | 99.5 | 99 | 99 | 99.2 | 100 | 99.2 | 100 | 99 | 99.3 | 100 | 99.9 | 99.8 | Activity [4]: Non-Toxic; survival at 16 µg/mL (Candida albicans [7]): 100%; Activity [9]: 17%; Activity (Candida albicans [10]): 78.23%; Activity (Candida albicans [11]): Active; Activity (Candida albicans [12]): 19.6%; Activity (Candida albicans [14]): Active; Activity (Candida albicans [15]): 3.35%; Activity (Vero): Toxic; Activity [19]: Non-Toxic; Activity (Candida albicans [20]): Active; Activity (Candida albicans [21]): 81.23%; survival at 16 µg/mL (Candida albicans [22]): 95%; Activity (Candida albicans [26]): Active; Activity (Candida albicans [27]): 6.8%; Activity (Candida albicans [32]): 4.2%; inhibition (INH) (Candida albicans [33]): 99.24%; MIC (Candida albicans [35]): 64 mg/L (≈ 116 µM); MIC (Candida albicans [36]): 2.56 mg/L
2 | C[C@@H]1[C@H](O)[C@@H](C)/C=C/C=C/C=C/C=C/C=C/C=C/C=C/[C@H](O[C@@H]2O[C@H](C)[C@@H](O)[C@H](N)[C@@H]2O)C[C@@H]2O[C@](O)(C[C@@H](O)C[C@@H](O)[C@H](O)CC[C@@H](O)C[C@@H](O)CC(=O)O[C@H]1C)C[C@H](O)[C@H]2C(=O)O [AMPHOTERICIN B] | 100 | 100 | 100 | 100 | 100 | 100 | 100 | 100 | 100 | 100 | 100 | 100 | 100 | 100 | 100 | 100 | 100 | 100 | 100 | Activity [38]: 10%; inhibition at 16 µg/mL (Candida albicans [39]): 100%
